Measurements as given in ChEMBL document CHEMBL1201862, “PubChem BioAssay data set” (2004).
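A five-concentration, 48-hour dose response in 96-well plates underlies each endpoint, interpolated linearly between surrounding concentrations. GI50: concentration for 50% inhibition of growth.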 Calls of active or inactive are those of the source. No stated cut-off is given here; in the data, active = GI50 up to about 1.1 µM and inactive = higher.

Experiments:
Experiment in all cases: growth of human tumour cells (NCI), 48 h
SF-295 = test system: SF-295
MOLT-4 = test system: MOLT-4
A498 = test system: A498
NCI-H23 = test system: NCI-H23
SW-620 = test system: SW-620
OVCAR-3 = test system: OVCAR-3
UO-31 = test system: UO-31
LOX IMVI = test system: LOX IMVI
HT-29 = test system: HT-29
HOP-62 = test system: HOP-62
786-0 = test system: 786-0
RXF 393 = test system: RXF 393
SNB-75 = test system: SNB-75
MDA-MB-231 = test system: MDA-MB-231
UACC-257 = test system: UACC-257
SK-MEL-5 = test system: SK-MEL-5
SK-MEL-28 = test system: SK-MEL-28
Malme-3M = test system: Malme-3M
MDA-N = test system: MDA-N

Structure (SMILES)	GI50 (SF-295)	GI50 (MOLT-4)	GI50 (A498)	GI50 (NCI-H23)	GI50 (SW-620)	GI50 (OVCAR-3)	GI50 (UO-31)	GI50 (LOX IMVI)	GI50 (HT-29)	GI50 (HOP-62)	GI50 (786-0)	GI50 (RXF 393)	GI50 (SNB-75)	GI50 (MDA-MB-231)	GI50 (UACC-257)	GI50 (SK-MEL-5)	GI50 (SK-MEL-28)	GI50 (Malme-3M)	GI50 (MDA-N)
CC(C)=NOC(=O)Nc1cccc2c1OCO2	> 100 µM (inactive)	> 100 µM (inactive)	> 100 µM (inactive)	> 100 µM (inactive)	> 100 µM (inactive)	> 100 µM (inactive)	> 100 µM (inactive)	> 100 µM (inactive)	> 100 µM (inactive)	> 100 µM (inactive)	> 100 µM (inactive)	> 100 µM (inactive)	> 100 µM (inactive)	> 100 µM (inactive)	> 100 µM (inactive)	> 100 µM (inactive)	> 100 µM (inactive)	> 100 µM (inactive)	
Cc1cccc(/C=N/NC(=S)NCCc2ccccn2)n1	24.6 µM (inactive)	18.9 µM (inactive)	34 µM (inactive)	26.6 µM (inactive)	42.5 µM (inactive)	48 µM (inactive)	16.9 µM (inactive)	18.3 µM (inactive)	27.9 µM (inactive)	18 µM (inactive)	23.3 µM (inactive)		20.3 µM (inactive)	39 µM (inactive)	33.8 µM (inactive)	26.1 µM (inactive)	56.1 µM (inactive)	47.6 µM (inactive)	60.8 µM (inactive)
CO/C=C(\Br)c1ccc2c(c1)OCO2	> 100 µM (inactive)	73.5 µM (inactive)	> 100 µM (inactive)	> 100 µM (inactive)	> 100 µM (inactive)	> 100 µM (inactive)	> 100 µM (inactive)			> 100 µM (inactive)	> 100 µM (inactive)	> 100 µM (inactive)	> 100 µM (inactive)		> 100 µM (inactive)		> 100 µM (inactive)	> 100 µM (inactive)	
Cc1ccc(/C=C/C(=O)c2c([O-])on[n+]2-c2ccccc2)cc1	7.74 µM (inactive)	2.34 µM (inactive)	5.86 µM (inactive)	4.61 µM (inactive)	2.46 µM (inactive)	3.1 µM (inactive)	2.62 µM (inactive)	1.88 µM (inactive)	1.9 µM (inactive)	5.28 µM (inactive)	1.83 µM (inactive)	1.94 µM (inactive)		4.98 µM (inactive)	3.64 µM (inactive)	3.71 µM (inactive)	2.26 µM (inactive)	5.42 µM (inactive)	2.92 µM (inactive)
COc1cc2c(c(O)c1OC)CC1CCC(=O)N1C2c1cccc2ccccc12 (stereo not given)	18.6 µM (inactive)	26.1 µM (inactive)	18.5 µM (inactive)	24 µM (inactive)	27.7 µM (inactive)	22.2 µM (inactive)	17.6 µM (inactive)	23 µM (inactive)	18.2 µM (inactive)	20.8 µM (inactive)	30.3 µM (inactive)		39 µM (inactive)	16.4 µM (inactive)	23.6 µM (inactive)	13.4 µM (inactive)	21.9 µM (inactive)	21.8 µM (inactive)	16.3 µM (inactive)
C/C(=N\O)c1ccc(Nc2nc3ccccc3c3occc23)cc1	3.4 µM (inactive)	3 µM (inactive)	8.41 µM (inactive)	15.6 µM (inactive)		12.4 µM (inactive)	15.9 µM (inactive)	4.23 µM (inactive)	1.15 µM (inactive)	11.3 µM (inactive)	3.8 µM (inactive)			2.76 µM (inactive)	5.12 µM (inactive)	8.51 µM (inactive)		19.9 µM (inactive)	11.8 µM (inactive)
CC(=O)N1c2ccccc2C23CCN(C)CC4C(C)OCC(C4CC2=O)C13 (stereo not given)	> 100 µM (inactive)	> 100 µM (inactive)	> 100 µM (inactive)	> 100 µM (inactive)	> 100 µM (inactive)		> 100 µM (inactive)	> 100 µM (inactive)	> 100 µM (inactive)		> 100 µM (inactive)	> 100 µM (inactive)	> 100 µM (inactive)	> 100 µM (inactive)	> 100 µM (inactive)	> 100 µM (inactive)	> 100 µM (inactive)	> 100 µM (inactive)	
N#Cc1c(N)nc2[nH]nc(N)c2c1-c1ccc(Cl)cc1	6.03 µM (inactive)	2.54 µM (inactive)	0.656 µM (active)	3.76 µM (inactive)	13.8 µM (inactive)	2.34 µM (inactive)	2.42 µM (inactive)	2.83 µM (inactive)	7.62 µM (inactive)	6.75 µM (inactive)	7.94 µM (inactive)	2.11 µM (inactive)		2.65 µM (inactive)	11.9 µM (inactive)	3.84 µM (inactive)	6.95 µM (inactive)	2.1 µM (inactive)	4.22 µM (inactive)
